Measurements reported in PubChem BioAssay (NCI).
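GI50 = concentration required for 50% inhibition of growth. Definition used: TGI = concentration required for complete inhibition of growth.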

Columns and labels:
Assay in all cases: NCI-60 cell line screen, 384-well format
MCF7 breast = tested on: MCF7 breast
COLO 205 colon = tested on: COLO 205 colon
RXF 393 renal = tested on: RXF 393 renal
A498 renal = tested on: A498 renal
MDA-MB-468 breast = tested on: MDA-MB-468 breast
ACHN renal = tested on: ACHN renal
OVCAR-5 ovarian = tested on: OVCAR-5 ovarian
SF-268 CNS = tested on: SF-268 CNS
SK-OV-3 ovarian = tested on: SK-OV-3 ovarian
OVCAR-8 ovarian = tested on: OVCAR-8 ovarian
OVCAR-4 ovarian = tested on: OVCAR-4 ovarian
UO-31 renal = tested on: UO-31 renal
UACC-62 melanoma = tested on: UACC-62 melanoma
IGROV1 ovarian = tested on: IGROV1 ovarian
SNB-19 CNS = tested on: SNB-19 CNS
MDA-MB-435 melanoma = tested on: MDA-MB-435 melanoma
NCI-H226 lung = tested on: NCI-H226 lung
HL-60(TB) leukemia = tested on: HL-60(TB) leukemia
SF-539 CNS = tested on: SF-539 CNS
RPMI-8226 leukemia = tested on: RPMI-8226 leukemia
NCI-H23 lung = tested on: NCI-H23 lung
M14 melanoma = tested on: M14 melanoma
HOP-92 NSCLC = tested on: HOP-92 NSCLC
NCI-H460 NSCLC = tested on: NCI-H460 NSCLC
HT29 colon = tested on: HT29 colon
HS 578T breast = tested on: HS 578T breast
PC-3 prostate = tested on: PC-3 prostate
A549 NSCLC = tested on: A549 NSCLC
U251 glioblastoma = tested on: U251 glioblastoma
SK-MEL-5 melanoma = tested on: SK-MEL-5 melanoma
CAKI-1 renal = tested on: CAKI-1 renal
KM12 colon = tested on: KM12 colon
SW-620 colon = tested on: SW-620 colon
T-47D breast = tested on: T-47D breast
NCI-H322M lung = tested on: NCI-H322M lung
SN12C renal = tested on: SN12C renal
DU-145 prostate = tested on: DU-145 prostate
MALME-3M melanoma = tested on: MALME-3M melanoma
NCI/ADR-RES ovarian = tested on: NCI/ADR-RES ovarian
HCC-2998 colon = tested on: HCC-2998 colon
EKVX NSCLC = tested on: EKVX NSCLC
SK-MEL-2 melanoma = tested on: SK-MEL-2 melanoma
UACC-257 melanoma = tested on: UACC-257 melanoma
BT-549 breast = tested on: BT-549 breast
CCRF-CEM leukemia = tested on: CCRF-CEM leukemia
HOP-62 NSCLC = tested on: HOP-62 NSCLC
MOLT-4 leukemia = tested on: MOLT-4 leukemia
SR leukemia = tested on: SR leukemia
MDA-MB-231 breast = tested on: MDA-MB-231 breast
SK-MEL-28 melanoma = tested on: SK-MEL-28 melanoma
HCT-116 colon = tested on: HCT-116 colon
K-562 leukemia = tested on: K-562 leukemia
SNB-75 CNS = tested on: SNB-75 CNS
786-0 renal = tested on: 786-0 renal
OVCAR-3 ovarian = tested on: OVCAR-3 ovarian
NCI-H522 lung = tested on: NCI-H522 lung
TK-10 renal = tested on: TK-10 renal
HCT-15 colon = tested on: HCT-15 colon
LOX IMVI melanoma = tested on: LOX IMVI melanoma
SF-295 CNS = tested on: SF-295 CNS

O=C(Cc1ccccc1)Nc1nnc(CCSCCc2nnc(NC(=O)Cc3ccccc3)s2)s1
GI50 (MCF7 breast): > 28.5 µM
TGI (MCF7 breast): > 75.1 µM
GI50 (COLO 205 colon): > 100 µM
TGI (COLO 205 colon): > 100 µM
GI50 (RXF 393 renal): 1.42 µM
TGI (RXF 393 renal): 4.88 µM
GI50 (A498 renal): 3.13 µM
TGI (A498 renal): 11.9 µM
GI50 (MDA-MB-468 breast): 29.7 µM
TGI (MDA-MB-468 breast): > 83.2 µM
GI50 (ACHN renal): > 30 µM
TGI (ACHN renal): > 100 µM
GI50 (OVCAR-5 ovarian): 16.7 µM
TGI (OVCAR-5 ovarian): > 100 µM
GI50 (SF-268 CNS): 2.16 µM
TGI (SF-268 CNS): 9.86 µM
GI50 (SK-OV-3 ovarian): 15.5 µM
TGI (SK-OV-3 ovarian): 40.4 µM
GI50 (OVCAR-8 ovarian): 4.38 µM
TGI (OVCAR-8 ovarian): 17.9 µM
GI50 (OVCAR-4 ovarian): 13.2 µM
TGI (OVCAR-4 ovarian): 40.5 µM
GI50 (UO-31 renal): 46 µM
TGI (UO-31 renal): > 100 µM
GI50 (UACC-62 melanoma): 8.39 µM
TGI (UACC-62 melanoma): 31.1 µM
GI50 (IGROV1 ovarian): 29.1 µM
TGI (IGROV1 ovarian): > 94 µM
GI50 (SNB-19 CNS): 19.4 µM
TGI (SNB-19 CNS): 48 µM
GI50 (MDA-MB-435 melanoma): 30 µM
TGI (MDA-MB-435 melanoma): > 100 µM
GI50 (NCI-H226 lung): 7.56 µM
TGI (NCI-H226 lung): 31.3 µM
GI50 (HL-60(TB) leukemia): 28.3 µM
TGI (HL-60(TB) leukemia): > 100 µM
GI50 (SF-539 CNS): 3.16 µM
TGI (SF-539 CNS): 18.2 µM
GI50 (RPMI-8226 leukemia): 1.42 µM
GI50 (NCI-H23 lung): 16.1 µM
TGI (NCI-H23 lung): 39.7 µM
GI50 (M14 melanoma): > 43.4 µM
TGI (M14 melanoma): > 88.8 µM
GI50 (HOP-92 NSCLC): 3.05 µM
TGI (HOP-92 NSCLC): 14.8 µM
GI50 (NCI-H460 NSCLC): 10.8 µM
TGI (NCI-H460 NSCLC): > 100 µM
GI50 (HT29 colon): > 100 µM
TGI (HT29 colon): > 100 µM
GI50 (HS 578T breast): 0.9 µM
TGI (HS 578T breast): 3.37 µM
GI50 (PC-3 prostate): 13.4 µM
TGI (PC-3 prostate): 35 µM
GI50 (A549 NSCLC): 1.06 µM
TGI (A549 NSCLC): 5.54 µM
GI50 (U251 glioblastoma): 3.13 µM
TGI (U251 glioblastoma): 21.4 µM
GI50 (SK-MEL-5 melanoma): 10.4 µM
TGI (SK-MEL-5 melanoma): 52.5 µM
GI50 (CAKI-1 renal): 8.03 µM
TGI (CAKI-1 renal): > 41 µM
GI50 (KM12 colon): 1.94 µM
TGI (KM12 colon): > 100 µM
GI50 (SW-620 colon): > 60.9 µM
TGI (SW-620 colon): > 100 µM
GI50 (T-47D breast): 27.3 µM
TGI (T-47D breast): > 88.3 µM
GI50 (NCI-H322M lung): 0.393 µM
TGI (NCI-H322M lung): 2.21 µM
GI50 (SN12C renal): 3.29 µM
TGI (SN12C renal): 19.5 µM
GI50 (DU-145 prostate): 14 µM
TGI (DU-145 prostate): > 100 µM
GI50 (MALME-3M melanoma): 16.1 µM
TGI (MALME-3M melanoma): 45.5 µM
GI50 (NCI/ADR-RES ovarian): > 100 µM
TGI (NCI/ADR-RES ovarian): > 100 µM
GI50 (HCC-2998 colon): 39.7 µM
TGI (HCC-2998 colon): > 100 µM
GI50 (EKVX NSCLC): 17.2 µM
TGI (EKVX NSCLC): > 92.9 µM
GI50 (SK-MEL-2 melanoma): 3.07 µM
TGI (SK-MEL-2 melanoma): 10.7 µM
GI50 (UACC-257 melanoma): 13.5 µM
TGI (UACC-257 melanoma): > 76.6 µM
GI50 (BT-549 breast): 9.85 µM
TGI (BT-549 breast): 30.5 µM
GI50 (CCRF-CEM leukemia): 11.6 µM
TGI (CCRF-CEM leukemia): > 100 µM
GI50 (HOP-62 NSCLC): 2.92 µM
TGI (HOP-62 NSCLC): 11.9 µM
GI50 (MOLT-4 leukemia): > 39.2 µM
TGI (MOLT-4 leukemia): > 100 µM
GI50 (SR leukemia): 0.544 µM
TGI (SR leukemia): > 100 µM
GI50 (MDA-MB-231 breast): 3.07 µM
TGI (MDA-MB-231 breast): 28.9 µM
GI50 (SK-MEL-28 melanoma): 21.7 µM
TGI (SK-MEL-28 melanoma): > 61.2 µM
GI50 (HCT-116 colon): > 72.6 µM
TGI (HCT-116 colon): > 100 µM
GI50 (K-562 leukemia): 10.1 µM
TGI (K-562 leukemia): > 100 µM
GI50 (SNB-75 CNS): 8.91 µM
TGI (SNB-75 CNS): 27.2 µM
GI50 ([…]-0 renal): 2.27 µM
TGI (786-0 renal): 8.96 µM
GI50 (OVCAR-3 ovarian): 7.24 µM
TGI (OVCAR-3 ovarian): > 60.5 µM
GI50 (NCI-H522 lung): 2.92 µM
TGI (NCI-H522 lung): 15.1 µM
GI50 (TK-10 renal): 18 µM
TGI (TK-10 renal): 62.2 µM
GI50 (HCT-15 colon): > 100 µM
TGI (HCT-15 colon): > 100 µM
GI50 (LOX IMVI melanoma): 3.99 µM
TGI (LOX IMVI melanoma): 23.1 µM
GI50 (SF-295 CNS): 9.57 µM
TGI (SF-295 CNS): 26.4 µM
